“Also recorded” adds a separate entry of the source. Square brackets hold non-standard residues; d marks the D form. NαhTyr = N-alpha-homo tyrosine (backbone-modified residue); NαhAla = N-alpha-homo alanine (backbone-modified residue); NαhLeu = N-alpha-homo leucine (backbone-modified residue); NαhLys = N-alpha-homo lysine (backbone-modified residue)
Legend:
[1] = test system: T lymphocytes of BALB/c mice immunized with the parent peptide 88-99H4; assay: T lymphocyte proliferation (tritiated thymidine) of mice immunized with parent peptide 88-99H4, restimulated in culture with parent peptide or analogues; assay type: cell-based; details: mice immunized with parent 88-99H4; for index of stimulation (IS) relative to the wells without peptide: restimulation peptide 90 μM (printed "to 90 μM"), FIG. 1; for index of stimulation (IS): restimulation peptide 100 μM (printed "to 100 μM"), FIG. 4; for activity compared with that of the parent peptide 88-99: T cell restimulation
Method: BALB/c mice were immunized with the parent peptide 88-99H4 and in cell cultures the T lymphocytes of these mice were restimulated with the same peptide or with the analogues A-E. The cell proliferation was measured by the incorporation of tritiated thymidine and the index of stimulation (1S) relative to the wells without peptide was calculated. The tests are performed in triplicate and the experiment is performed several times in independent experiments.
The same experiments were performed with peptide G, (corresponding to the sequence SEQ ID NO: 7).
(§1) FIG. 1: Response tests on the T lymphocytes of BALB/c mice injected with the parent peptide 88-99 of the histone H4 subcutaneously with Freund's adjuvant, and stimulation ex-vivo with the parent peptide or the analogue E; the stimulation index is shown on the y-axis and the different concentrations of peptide are shown on the x-axis.
as §1, with “4:” for “1:”, “G;” for “E;”

[2] = test system: T lymphocytes of BALB/c mice injected with the modified peptide 88-99 of the histone H4; assay: Mirror test: T lymphocytes of mice injected with the modified 88-99 H4 peptides, stimulated ex vivo with the analogue and the parent peptide 88-99; assay type: in vivo; details: for immunogenicity (induces responses against the homologous peptide): mice injected with the analogue subcutaneously with Freund's adjuvant; for cross reaction of the generated T cells with the parent peptide 88-99: mice injected with the analogue, ex vivo stimulation with parent peptide 88-99
Method: In addition, a mirror manipulation of the foregoing was performed, namely response tests on the T lymphocytes of mice injected with the modified peptides and stimulation ex vivo with the parent peptide (88-99). After injection of the analogues, analyses were performed on cell cultures with the said analogues and the parent peptide 88-99. The following results are observed:
In addition, a mirror experiment of the foregoing was performed, namely an experiment on mice injected with the peptide G and stimulation ex vivo with increasing quantities of the parent peptide (88-99).
FIG. 2: Response tests on the T lymphocytes of BALB/c mice injected with the modified peptide 88-99 A or with the modified peptide 88-99 D of the histone H4 subcutaneously with Freund's adjuvant. The stimulation index is shown on the y-axis and the different concentrations of peptide are shown on the x-axis.
FIG. 3: Response tests on the T lymphocytes of BALB/c mice injected with the modified peptide 88-99 E of the histone H4 subcutaneously with Freund's adjuvant. The stimulation index is shown on the y-axis and the different concentrations of peptide are shown on the x-axis.
FIG. 5: Response tests on the T lymphocytes of BALB/c mice injected with the modified peptide 88-99 G of the histone H4 subcutaneously with Freund's adjuvant. The stimulation index is shown on the y-axis and the different concentrations of peptide are shown on the x-axis.

Substance | index of stimulation (IS) relative to the wells without peptide [1] | index of stimulation (IS) [1] | activity compared with that of the parent peptide 88-99 [1] | immunogenicity (induces responses against the homologous peptide) [2] | cross reaction of the generated T cells with the parent peptide 88-99 [2]
H-Tyr-Ala-Leu-Lys-Arg-Gln-Gly-Arg-Thr-Leu-Tyr-Gly-OH (H-YALKRQGRTLYG-OH; listed as Homo sapiens) [parent peptide 88-99H4, reference compound] | 6.7 | 16.9 |  |  | 
^88H2N-Tyr-Ala-Leu-Lys-Arg-Gln-Gly-Arg-Thr-Nα-hLeu-Nα-hTyr-Gly-OH^99 (H-YALKRQGRT[NαhLeu][NαhTyr]G-OH; also: Nα-homo leucine and tyrosine residues) [peptide G] |  | 16.6 | analogous | immunogenic | react by cross reaction with the homologous peptide G and in particular with the parent peptide with the same intensity
^88H2N-Tyr-Ala-Leu-Lys-Arg-Gln-Gly-Arg-Thr-Nα-hLeu-Tyr-Gly-OH^99 (H-YALKRQGRT[NαhLeu]YG-OH; also: Nα-homo leucine residue) [peptide E] | 7.7 |  | analogous, or even superior depending on the experiments | immunogenic | react by cross reaction with the parent peptide; also recorded: cross reacts perfectly
^88H2N-Tyr-Ala-Leu-Nα-hLys-Arg-Gln-Gly-Arg-Thr-Leu-Tyr-Gly-OH^99 (H-YAL[NαhLys]RQGRTLYG-OH; also: Nα-homo amino acid residue) [peptide D] |  |  |  | immunogenic | no cross reaction with the parent peptide
^88H2N-Tyr-Nα-hAla-Leu-Lys-Arg-Gln-Gly-Arg-Thr-Leu-Tyr-Gly-OH^99 (H-Y[NαhAla]LKRQGRTLYG-OH; also: Nα-homo amino acid residue) [peptide A] |  |  |  | immunogenic | no cross reaction with the parent peptide
